Results taken from US20250009743A1, “METHODS OF TREATING CANCERS USING STING AGONISTS” (Dana-Farber Cancer Institute, Inc., priority 2021, published 2025).

Columns and labels:
[1] = test system: BP-sgControl and BP-sgSTING cells; test: CellTiter-Glo cell viability of BP-sgControl and BP-sgSTING cells; type: cell-based, mouse; settings: effect of loss of tumor cell-intrinsic STING; three days; FIG. 11B
Protocol: Tumor cells were seeded in 96-well plates at a density of 5000 cells per well and allowed to adhere overnight. Cells were then treated for 72 hours with indicated drugs at the concentrations shown. Cell viability was measured using CellTiter-Glo® 2.0 Cell Viability Assay (Promega, #G9242) according to the manufacturer's instruction. Growth inhibition was calculated by comparing the […] of drug-treated wells to that of untreated controls 1 set at 100%. Dose response curves and IC50 values were generated using a non-linear regression model in GraphPad Prism 8.

DF86 PDX = test: DF86 ovarian PDX with human bone marrow monocytes in NSG mice; type: in vivo
Source text: For the PDX in vivo experiments, about 3×10^6 PDX tumor cells were mixed with 3×10^6 human bone marrow mononuclear cells in serum-free DMEM/F12 medium containing 50% Matrigel (CAT #70001, […] Technology) and intraperitoneally transplanted into NOD/SCID IL2Rgnull mice (NSG, The Jackson Laboratory). About three weeks after injection, PDX-bearing mice were equivalently divided into 4 groups according to the luminescent intensity and treated with vehicle control, olaparib, MSA-2 and olaparib in combination with MSA-2 using the same dosing and schedule that have been described above. Ascites was harvested for analysis after three weeks' treatment.
Tumors were chopped and digested in collagenase buffer as described previously (Ding et al., 2018 Cell Rep 25, 2972-2980.e2975). Single cell suspensions of tumor and ascites were obtained by filtering through 70 um strainers and treated with 1× eBioscience RBC lysis buffer (Thermo Fisher) before staining. Single cells suspensions were incubated with LIVE/DEAD Fixable Aqua Dead Cell Stain (Life Technologies, Cat #L34965) for 30 min and then blocked with anti-CD16/32 (Biolegend, clone 93) for 20 min on ice. Samples were then incubated with appropriate antibodies for 30 min on ice. Foxp3 staining buffer set (eBioscience, Cat #00-5523-00) was applied for intracellular markers staining. For the intracellular cytokine analysis, cells were stimulated with Leukocyte Activation Cocktail (BD Biosciences, Cat #550583) at 37° C. for 4-6 hours prior to FACS staining. The following antibodies were used in this study: antibodies were purchased from BioLegend unless otherwise indicated: CD45 (clone 30-F11), CD3ε (clone 145-2C11), CD4 (clone RM4-5), CD8 (clone 53-6.7), CD44 (clone IM7), CD62L (MEL-14), CD25 (PC61), IFNγ (clone XMG1.2), TNFα (clone MP6-XT22), CD11b (clone M1/70), CD11c […], F4/80 (clone BM8), Ly-6C (clone HK1.4), Ly-6G (clone 1A8), MHC-II (clone M5/114.15.2), CD80 (clone 16-10A1), CD86 (clone GL-1), MHC-I (clone KH114), FoxP3 (clone FJK-16 s; eBioscience), Phospho-IRF-3 (Ser396) (clone D601M, Cell signaling technology) and Phospho-TBK1/NAK (Ser172) (clone D52C2, Cell signaling technology). The following human antibodies were used in this study: cell surface markers includes CD45 (clone H130), CD11b (clone M1/70), CD11c (clone Bu15), CD80 (clone 2D10), CD86 (clone IT2.2), CD14 (clone 63D3), CD15 […], HLA-DR (clone L243) and HLA-A,B,C (clone W6/32); intracellular markers include CD163 (clone GHI/61), CD68 (clone Y1/82A) and CD206 (clone 15-2). Flow cytometry was performed on an LSRII (BD Biosciences) or Fortessa HTS (BD Biosciences) at DFCI Flow Cytometry Core, and all the data were analyzed using FlowJo software.

[2] = test system: TAMs co-cultured with CD8^+ T cells; test: Co-culture of TAMs with CD8^+ T cells; type: cell-based, mouse; settings: TAMs pre-treated with MSA-2 33 μM, washed off; FIG. 34A
Protocol: Tumor associated macrophages (TAMs) were isolated from ETP tumors using a mouse CD11b^+ myeloid cell isolation kit (StemCell, #18970) and seeded in 48-well plate at the density of 1×10^5 cells/well, cultured in DMEM growth medium (DMEM+10% FBS+100 μg/mL penicillin-streptomycin) supplemented with 10 ng/ml mouse M-CSF (BioLegend, #576404) and allowed to adhere overnight. TAMs were then treated with or without MSA-2 at the concentration of 33 μM in the median mentioned above for 2 days. MSA-2 was washed off before coculturing TAM with CD8^+ T cells. Mouse CD8^+ T cells were isolated from spleens of FVB/NJ mice using a mouse CD8+ T cell isolation kit (StemCell, #19853) and seeded in the same 48-well plate at the density of 1×10^5 cells/well, cultured alone or cocultured with TAMs in RPMI 1640 supplemented with 10% FBS, 10 ng/ml mouse M-CSF (BioLegend, #576404), 0.055 mM 2-mercaptoethanol, 2 ng/ml IL-2 (Peprotech), 2.5 ng/ml IL-7 (Peprotech) and 50 ng/ml IL-15 (Peprotech) for 2 days. After that, T cells were collected for flow cytometry analysis.

Compound | sensitivity to olaparib in vitro (cell viability) [1] | proportion of TAMs in ascites (DF86 PDX; FIG. 25H) | M1/M2 ratio in ascites (DF86 PDX; FIG. 25I) | CD14^+ myeloid DCs (CD14^+HLA-DR^+) (DF86 PDX; FIG. 25J) | tumor burden (fold change of intensity of luciferase signal) (DF86 PDX; compared to control or olaparib treated mice, FIG. 25G) | TAM-mediated suppression of CD8^+ T cells (cytokine production) [2]
O=C(c1cc(Cc2n[nH]c(=O)c3ccccc23)ccc1F)N1CCN(C(=O)C2CC2)CC1 [olaparib] | did not affect sensitivity |  |  |  |  | 
COc1cc2cc(C(=O)CCC(=O)O)sc2cc1OC [MSA-2] |  | decreased proportion of TAMs | increased M1/M2 ratio | significantly increased | significantly decreased | reversed TAM-mediated suppression of CD8^+ T cells
